The values that follow come from US8518935B2, “Amorphous besifloxacin solid” (Bausch & Lomb Incorporated, priority 2009, dated 2013).

SMILES strings stand for the structures. Converted amounts (≈) assume the structure as drawn.

This data set in a line: Solubility in water at room temperature and pH of about 7. The data set is classed as physicochemical.

Regarding `N[C@@H]1CCCCN(c2c(F)cc3c(=O)c(C(=O)O)cn(C4CC4)c3c2Cl)C1` [amorphous besifloxacin free base, (R)-(+)-7-(3-amino-2,3,4,5,6,7-hexahydro-1H-azepin-1-yl)-1-cyclopropyl-8-chloro-6-fluoro-1,4-dihydro-4-oxoquinoline-3-carboxylic acid], where the note is “pH 7, room temperature”, the solubility amounted to 516 µg/mL (≈ 1310 µM).

As to `N[C@@H]1CCCCN(c2c(F)cc3c(=O)c(C(=O)O)cn(C4CC4)c3c2Cl)C1` [besifloxacin free base starting material, (R)-(+)-7-(3-amino-2,3,4,5,6,7-hexahydro-1H-azepin-1-yl)-1-cyclopropyl-8-chloro-6-fluoro-1,4-dihydro-4-oxoquinoline-3-carboxylic acid], the solubility in water (room temperature) came to 73.3 µg/mL (≈ 186 µM).

Usually solubility stands for how much of the substance goes into solution per volume.
